Data on 32 molecules can be found in US9862686B2, “N1-sulfonyl-5-fluoropyrimidinone derivatives” (Adama Makhteshim Ltd., priority 2009, dated 2018).

For data set [1], the system named is Mycosphaerella graminicola; Anamorph: Septoria tritici; Bayer Code SEPTTR. Kind of data set: Fungicidal activity: leaf blotch of wheat, protectant and curative treatment of inoculated wheat plants. The settings on record: Zymoseptoria tritici. The class given is in vivo. Here is the method:
Evaluation of Fungicidal Activity: Leaf Blotch of Wheat (Mycosphaerella graminicola; Anamorph: Septoria tritici; Bayer Code SEPTTR)
Wheat plants (variety Yuma) were grown from seed in a greenhouse in 50% mineral soil/50% soil-less Metro mix until the first leaf was fully emerged, with 7-10 seedlings per pot. These plants were inoculated with an aqueous spore suspension of Septoria tritici either prior to or after fungicide treatments. After inoculation the plants were kept in 100% relative humidity (one day in a dark dew chamber followed by two to three days in a lighted dew chamber) to permit spores to germinate and infect the leaf. The plants were then transferred to a greenhouse for disease to develop.
The following table presents the activity of typical compounds of the present disclosure when evaluated in these experiments. The effectiveness of the test compounds in controlling disease was determined by assessing the severity of disease on treated plants, then converting the severity to percent control based on the level of disease on untreated, inoculated plants.
In each case of Table II the rating scale is as follows: […]

Setting [2] is: 24 h, One-Day Protectant (1DP), 100 ppm, wheat plants (variety Yuma), percent control vs untreated inoculated plants, read-out: SEPTTR 100 PPM 1DP (% Disease Control rating).
Where [3] appears, read: 72 h, Three-Day Curative (3DC), 100 ppm, wheat plants (variety Yuma), percent control vs untreated inoculated plants, read-out: SEPTTR 100 PPM 3DC (% Disease Control rating).
[4] abbreviates: 24 h, read-out: SEPTTR 100 PPM 1DP (% Disease Control rating).
Setting [5] is: 72 h, read-out: SEPTTR 100 PPM 3DC (% Disease Control rating).

Where two headings read alike, the source gives them in different places.

A word on the melting point: it is the temperature of the solid-liquid transition. On to `CN(C)/C=N/c1nc(=O)n(S(=O)(=O)c2cccs2)cc1F` [Cmpd 7], for which the melting point lay in the range of 205 to 207 °C. Besides, the pest or weed control at 100 ppm in data set [1] (setting [2]) lay in the range of 76 to 100%. Moreover, the pest or weed control at 100 ppm in data set [1] (setting [3]) lay within 76 to 100%.
Molecule `Nc1nc(=O)n(S(=O)(=O)c2cccs2)cc1F` [Cmpd 9] gave a melting point of 187 to 189 °C. In data set [1] (setting [2]), the pest or weed control at 100 ppm fell in the range of 76 to 100%. The pest or weed control at 100 ppm in data set [1] (setting [3]) lay in the range of 76 to 100%.
On to `CCCS(=O)(=O)n1cc(F)c(N)nc1=O` [Cmpd 10], for which the melting point fell in the range of 144 to 146 °C. Also, the pest or weed control at 100 ppm in data set [1] (setting [2]) was in the range of 76 to 100%. The pest or weed control at 100 ppm in data set [1] (setting [3]) fell in the range of 76 to 100%.
`Cn1cnc(S(=O)(=O)n2cc(F)c(N)nc2=O)c1` [Cmpd 11] came in with a melting point of 235 to 237 °C. The pest or weed control at 100 ppm in data set [1] (setting [2]) is 26 to 50%. The pest or weed control at 100 ppm in data set [1] (setting [3]) was in the range of 26 to 50%.
The molecule `Nc1nc(=O)n(S(=O)(=O)Cc2ccccc2)cc1F` [Cmpd 12] showed a melting point of 172 to 174 °C. Also, the pest or weed control at 100 ppm in data set [1] (setting [2]) was 76 to 100%. Besides, the pest or weed control at 100 ppm in data set [1] (setting [3]) fell in the range of 76 to 100%.
`Nc1nc(=O)n(S(=O)(=O)c2ccc(Cl)cc2Cl)cc1F` [Cmpd 13] displayed a melting point of 229 to 230 °C. Besides, in data set [1] (setting [2]), the pest or weed control at 100 ppm lay within 76 to 100%. Further, the pest or weed control at 100 ppm in data set [1] (setting [3]) lay in the range of 76 to 100%.
For the molecule `Nc1nc(=O)n(S(=O)(=O)c2ccc(C(F)(F)F)cc2)cc1F` [Cmpd 14], the melting point fell in the range of 202 to 204 °C. The pest or weed control at 100 ppm in data set [1] (setting [2]) lay in the range of 76 to 100%. In addition, the pest or weed control at 100 ppm in data set [1] (setting [3]) lay within 76 to 100%.
Molecule `CS(=O)(=O)c1ccc(S(=O)(=O)n2cc(F)c(N)nc2=O)cc1` [Cmpd 15] gave a melting point of 220 to 223 °C. For the same molecule, the pest or weed control at 100 ppm in data set [1] (setting [2]) lay in the range of 51 to 75%. For the same molecule, the pest or weed control at 100 ppm in data set [1] (setting [3]) fell in the range of 76 to 100%.
The matching figures for `N#Cc1ccc(S(=O)(=O)n2cc(F)c(N)nc2=O)cc1` [Cmpd 16]: 210 °C, 51 to 75% and 76 to 100%.
`Nc1nc(=O)n(S(=O)(=O)c2ccc(Cl)c(Cl)c2)cc1F` [Cmpd 17] yielded a melting point of 206 to 207 °C. In addition, in data set [1] (setting [2]), the pest or weed control at 100 ppm was 76 to 100%. Moreover, in data set [1] (setting [3]), the pest or weed control at 100 ppm was 76 to 100%.
Consider `Nc1nc(=O)n(S(=O)(=O)c2c(Cl)cccc2Cl)cc1F` [Cmpd 18], for which the melting point was in the range of 209 to 212 °C. The pest or weed control at 100 ppm in data set [1] (setting [2]) lay in the range of 76 to 100%. In addition, in data set [1] (setting [3]), the pest or weed control at 100 ppm was in the range of 76 to 100%.
`Nc1nc(=O)n(S(=O)(=O)Cc2ccc(Br)cc2)cc1F` [Cmpd 19] displayed a melting point of 156 to 159 °C. The pest or weed control at 100 ppm in data set [1] (setting [2]) was 76 to 100%. For the same molecule, the pest or weed control at 100 ppm in data set [1] (setting [3]) was in the range of 76 to 100%.
Regarding `Cc1cc(Oc2ncc(C(F)(F)F)cc2Cl)ccc1S(=O)(=O)n1cc(F)c(N)nc1=O` [Cmpd 23], the melting point was 132 °C (dec.). Also, the pest or weed control at 100 ppm in data set [1] (setting [2]) lay within 76 to 100%. Moreover, the pest or weed control at 100 ppm in data set [1] (setting [3]) lay in the range of 76 to 100%.
For the molecule `Nc1nc(=O)n(S(=O)(=O)c2ccccc2)cc1F` [Cmpd 24], the melting point was 195 to 196 °C. Also, in data set [1] (setting [2]), the pest or weed control at 100 ppm lay in the range of 76 to 100%. In addition, the pest or weed control at 100 ppm in data set [1] (setting [3]) lay within 76 to 100%.
For the molecule `Cc1ccc(S(=O)(=O)n2cc(F)c(N)nc2=O)cc1` [Cmpd 25], the melting point was in the range of 208 to 210 °C. Also, the pest or weed control at 100 ppm in data set [1] (setting [2]) is 76 to 100%. In addition, the pest or weed control at 100 ppm in data set [1] (setting [3]) is 76 to 100%.
Molecule `COc1ccc(S(=O)(=O)n2cc(F)c(N)nc2=O)cc1` [Cmpd 26] yielded a melting point of 182.5 °C. The pest or weed control at 100 ppm in data set [1] (setting [2]) was in the range of 76 to 100%. For the same molecule, the pest or weed control at 100 ppm in data set [1] (setting [3]) was in the range of 76 to 100%.
Molecule `CS(=O)(=O)n1cc(F)c(N)nc1=O` [Cmpd 27] showed a melting point of 181 to 184 °C. Further, in data set [1] (setting [2]), the pest or weed control at 100 ppm was in the range of 76 to 100%. In addition, the pest or weed control at 100 ppm in data set [1] (setting [3]) was in the range of 76 to 100%.
As to `CN(C)/C=N/c1nc(=O)n(S(=O)(=O)c2c(Cl)cccc2Cl)cc1F` [Cmpd 29], the melting point fell in the range of 207 to 211 °C. Also, the pest or weed control at 100 ppm in data set [1] (setting [2]) was 76 to 100%. For the same molecule, in data set [1] (setting [3]), the pest or weed control at 100 ppm was 76 to 100%.
Molecule `CC(=O)Nc1nc(=O)n(S(=O)(=O)c2ccc(Cl)cc2)cc1F` [Cmpd 34] returned a melting point of 159 to 162 °C. In data set [1] (setting [2]), the pest or weed control at 100 ppm fell in the range of 76 to 100%. Further, in data set [1] (setting [3]), the pest or weed control at 100 ppm was in the range of 76 to 100%.
Turning to `CCC(=O)Nc1nc(=O)n(S(=O)(=O)c2ccc(Cl)cc2)cc1F` [Cmpd 35], the melting point is 148 to 154 °C (dec.). The pest or weed control at 100 ppm in data set [1] (setting [2]) was 76 to 100%. Further, in data set [1] (setting [3]), the pest or weed control at 100 ppm fell in the range of 76 to 100%.
`CC(C)(C)C(=O)Nc1nc(=O)n(S(=O)(=O)c2ccc(Cl)cc2)cc1F` [Cmpd 36] registered a melting point of 129 to 132 °C. In data set [1] (setting [2]), the pest or weed control at 100 ppm was 76 to 100%. For the same molecule, the pest or weed control at 100 ppm in data set [1] (setting [3]) fell in the range of 76 to 100%.
`O=C(Nc1nc(=O)n(S(=O)(=O)c2ccc(Cl)cc2)cc1F)c1ccccc1` [Cmpd 37]: the melting point lay in the range of 156 to 159 °C. In addition, the pest or weed control at 100 ppm in data set [1] (setting [2]) lay in the range of 76 to 100%. For the same molecule, the pest or weed control at 100 ppm in data set [1] (setting [3]) was 26 to 50%.
The matching figures for `Cc1ccc(C(=O)Nc2nc(=O)n(S(=O)(=O)c3ccc(Cl)cc3)cc2F)cc1` [Cmpd 39]: 156 to 158 °C, 0 to 25% and 76 to 100%.
For the molecule `O=C(Nc1ccccc1)Nc1nc(=O)n(S(=O)(=O)c2ccccc2)cc1F` [Cmpd 40, 1-(1-benzenesulfonyl-5-fluoro-2-oxo-1,2-dihydropyrimidin-4-yl)-3-phenylurea], the melting point was 210 to 214 °C. The pest or weed control at 100 ppm in data set [1] (setting [4]) fell in the range of 0 to 25%. Moreover, the pest or weed control at 100 ppm in data set [1] (setting [5]) was in the range of 26 to 50%.
Regarding `O=C(Nc1ccccc1)Nc1nc(=O)n(S(=O)(=O)c2c(Cl)cccc2Cl)cc1F` [Cmpd 42], the melting point lay within 205 to 210 °C. Further, the pest or weed control at 100 ppm in data set [1] (setting [2]) is 0 to 25%. Also, the pest or weed control at 100 ppm in data set [1] (setting [3]) lay in the range of 26 to 50%.
Molecule `COc1ccc(S(=O)(=O)n2cc(F)c(NC(=O)Nc3ccccc3)nc2=O)cc1` [Cmpd 43] showed a melting point of 185 to 191 °C. Moreover, in data set [1] (setting [2]), the pest or weed control at 100 ppm was in the range of 0 to 25%. The pest or weed control at 100 ppm in data set [1] (setting [3]) lay within 26 to 50%.
As for `O=c1nc(NC(=S)Nc2ccccc2)c(F)cn1S(=O)(=O)c1ccccc1` [Cmpd 44, (1-benzenesulfonyl-5-fluoro-2-oxo-1,2-dihydropyrimidin-4-yl)-3-phenylthiourea], the melting point lay in the range of 205 to 208 °C. The pest or weed control at 100 ppm in data set [1] (setting [4]) was in the range of 0 to 25%. Further, the pest or weed control at 100 ppm in data set [1] (setting [5]) lay in the range of 26 to 50%.
Regarding `COc1ccc(S(=O)(=O)n2cc(F)c(NC(=S)Nc3ccccc3)nc2=O)cc1` [Cmpd 45], the melting point was in the range of 190 to 195 °C. Further, the pest or weed control at 100 ppm in data set [1] (setting [2]) was in the range of 26 to 50%. In addition, in data set [1] (setting [3]), the pest or weed control at 100 ppm lay in the range of 51 to 75%.
For `O=c1nc(NC(=S)Nc2ccccc2)c(F)cn1S(=O)(=O)c1cccs1` [Cmpd 46], in that order: 182 to 185 °C, 0 to 25% and 26 to 50%.
`O=C(Nc1nc(=O)n(S(=O)(=O)c2ccccc2)cc1F)Oc1ccccc1` [Cmpd 47, (1-benzenesulfonyl-5-fluoro-2-oxo-1,2-dihydropyrimidin-4-yl)carbamic acid phenyl ester] showed a melting point of 182 to 185 °C. In data set [1] (setting [4]), the pest or weed control at 100 ppm lay within 51 to 75%. For the same molecule, the pest or weed control at 100 ppm in data set [1] (setting [5]) was 76 to 100%.
For `COc1ccc(S(=O)(=O)n2cc(F)c(NC(=O)Oc3ccccc3)nc2=O)cc1` [Cmpd 49], in that order: 138 to 142 °C, 0 to 25% and 76 to 100%.
For `O=C(Nc1nc(=O)n(S(=O)(=O)c2c(Cl)cccc2Cl)cc1F)Oc1ccccc1` [Cmpd 50], in that order: 199 to 203 °C, 76 to 100% and 76 to 100%.
